Measured values published in patent US7947703B2, “Phenanthridinium derivatives as DNA binding agents” (University Court of the University of Glasgow, priority 2003, dated 2011).
Marks after values point to notes of the source that are not given here.

Assays:
[1] = system: human ovarian tumour cell line A2780; test: growth (tetrazolium dye-based microtitration) cytotoxicity assay, A2780; format: cell-based; details: for IC50: Homo sapiens, A2780, cisplatin-sensitive line, 24 hours drug exposure, 3 day recovery, mean±SEM of triplicate plates; for cytotoxicity (in words): overall statement across A2780, A2780/cp70 and MCP1
Description: (§1) Compounds were tested in a growth assay with a 24 hours drug exposure and a 3 day recovery period. Cell lines used were human ovarian tumour cell line A2780 and 2 Cisplatin resistant derivatives cell lines A27080/cp70 and MCP1. IC50 is the concentration of drug required to reduce the surviving cell number to 50% of that of the control untreated cells. Results are from one experiment and are the mean±SEM of the triplicate plates.
(§2) DIP cytotoxicity was determined by a tetrazolium dye-based microtitration assay. DNA affinity measurements of DIPs were undertaken using Isothermal Titration Calorimetry (ITC).

[2] = system: Cisplatin resistant cell line MCP1; test: growth (tetrazolium dye-based microtitration) cytotoxicity assay, MCP1; format: cell-based, human; details: for IC50: Homo sapiens, cisplatin-resistant line, 24 hours drug exposure, 3 day recovery, mean±SEM of triplicate plates; for RF2: rapport of the IC50 between A2780 and MCP1, the lower RF the better
Description: as §1, §2

[3] = system: Cisplatin resistant cell line A2780/cp70; test: growth (tetrazolium dye-based microtitration) cytotoxicity assay, A2780/cp70; format: cell-based, human; details: for IC50: Homo sapiens, A2780/CP70, cisplatin-resistant line, 24 hours drug exposure, 3 day recovery, mean±SEM of triplicate plates; for RF1: rapport of the IC50 between A2780 and A2780/cp70, the lower RF the better
Description: as §1, §2

Salmon DNA = test: DNA affinity by Isothermal Titration Calorimetry (ITC), Salmon DNA; format: binding; design: key to Ka Salmon DNA: *^1: No measurable binding via ITC; details: for DNA affinity (in words): DNA source not given
Description: as §2

Calf DNA = test: DNA affinity by Isothermal Titration Calorimetry (ITC), Calf DNA; format: binding; design: key: *^1: No measurable binding via ITC
Description: as §2

SMILES	melting point	IC50 [1] [µM]	IC50 [2] [µM]	RF2 [2]	IC50 [3] [µM]	RF1 [3]	Ka Salmon DNA (Salmon DNA)	Ka Calf DNA (Calf DNA)	cytotoxicity (in words) [1]	DNA affinity (in words) (Salmon DNA)	cytotoxicity on cisplatin-sensitive cell line A2780 (in words) [1]
[Br-].c1ccc2c(c1)c[n+](CCN1CCCCC1)c1ccccc21	167 to 168 °C	–	–	–	–	–	–	–	–	–	–
[Br-].[Br-].c1ccc2c(c1)c[n+](CCN1CCN(CC[n+]3cc4ccccc4c4ccccc43)CC1)c1ccccc21	260 to 261 °C	–	–	–	–	–	–	–	–	–	–
COc1ccc(CSCC[n+]2cc3ccccc3c3ccccc32)cc1.[Br-]	182 to 183 °C	–	–	–	–	–	–	–	–	–	–
CC(C)N1CC[n+]2c1c1ccccc1c1ccccc12.[Br-]	250 to 251 °C (dec.)	–	–	–	–	–	–	–	–	–	–
[Br-].[Br-].[Br-].c1ccc2c(c1)c1[n+](c3ccccc23)CCN1[C@H]1C[C@@H](N2CC[n+]3c2c2ccccc2c2ccccc23)C[C@@H](N2CC[n+]3c2c2ccccc2c2ccccc23)C1 [AP3-42]	–	8.02 ± 1.14	9.44 ± 0.58	1.2	7.29 ± 0.38	0.9	–	–	–	–	–
COc1ccc(CN2CC[n+]3c2c2ccccc2c2ccccc23)cc1.[Br-] [AP3-56, 1-(4-Methoxy-benzyl)-2,3-dihydro-1H-imidazo[1,2-f]phenanthridinium bromide]	–	1.53 ± 0.09	1.06 ± 0.06	0.7	1.56 ± 0.06	1.0	–	–	–	–	–
[Br-].c1ccc2c(c1)c1[n+](c3ccccc23)CCN1C1CC1 [AP3-80]	–	5.07 ± 1.06	5.68 ± 0.86	1.1	4.54 ± 0.7	0.9	–	–	–	–	–
COc1ccc(N2CC[n+]3c2c2ccccc2c2ccccc23)cc1.[Br-] [AP3-83]	–	1.45 ± 0.15	0.5 ± 0.04	0.3	1.1 ± 0.13	0.8	3.73 ± 1827 M^−1 (10^4)	3.46 ± 1726 M^−1 (10^4)	–	–	–
[Br-].c1ccc2c(c1)c[n+](CCN1CCCCC1)c1ccccc21 [AP4-20]	–	9.77 ± 1.04	6.3 ± 0.09	0.6	16.5 ± 0.8	1.7	–	–	–	–	–
COc1ccc(CN2CC[n+]3c2ccc2ccccc23)cc1 [AP4-44, 3-(4-Methoxy-benzyl)-2,3-dihydro-1H-imidazo[1,2-a]quinolin-10-ylium bromide]	–	30.9 ± 2.5	11 ± 1	0.4	12.6 ± 0.6	0.4	*^1	*^1	much less cytotoxicity	cancel any measurable DNA affinity	–
Br.Br.c1ccc2c(c1)c[n+](CCN1CCN(CC[n+]3cc4ccccc4c4ccccc43)CC1)c1ccccc21 [AP4-48]	–	18.4 ± 1.23	11.7 ± 1.51	0.6	16.8 ± 0.54	0.9	–	–	–	–	–
[Br-].[Br-].[Br-].c1ccc2c(c1)c[n+](CCN1CCCN(CC[n+]3cc4ccccc4c4ccccc43)CCCN(CC[n+]3cc4ccccc4c4ccccc43)CCC1)c1ccccc21 [AP4-55]	–	2.28 ± 0.23	1.13 ± 0.12	0.5	1.59 ± 0.15	0.7	–	–	good cytotoxicity	–	–
OCCN1CC[n+]2c1c1ccccc1c1ccccc12.[Br-] [AP6-5]	–	11.7 ± 1.2	7.8 ± 1.47	0.7	13.7 ± 1.5	1.2	1.84 ± 660 M^−1 (10^4)	1.53 ± 838.9 M^−1 (10^4)	–	–	–
COc1ccc([C@@H](C)N2CC[n+]3c2c2ccccc2c2ccccc23)cc1 [AP6-96, 1-[1-(4-Methoxy-phenyl)-ethyl]-2,3-dihydro-1H-imidazo[1,2-f]phenanthridin-4-ylium bromide]	–	1.03 ± 0.06	0.53 ± 0.04	0.5	1.15 ± 0.07	1.1	5.17 ± 1948 M^−1 (10^4)	4.14 ± 2685 M^−1 (10^4)	–	–	–
COC(=O)[C@H](Cc1ccccc1)N1CC[n+]2c1c1ccccc1c1ccccc12.[Br-] [AP8-56]	–	35.8 ± 4.2	20 ± 1.2	–	21.6 ± 1.8	–	*^1	*^1	moderate activity	does not have any measurable binding property	moderate cytotoxicity
